From patent publication US20060019945A1, “Granzyme b inhibitors” (priority 2002, published 2006) come the findings set out here.

What is called Ki is a measure of affinity in units of concentration, obtained from inhibition or displacement.

For this assay, the target named is T1, human granzyme B (Homo sapiens, UniProt P10144).
T1 construct: the first amino acid of mature granzyme B; hexa-histidine tag (N, cleaved yes); Factor Xa recognition site Ile-Glu-Gly-Arg (N, cleaved yes); honeybee melittin secretion signal (N, cleaved yes); made in house; host or cells: Sf9 insect cells (baculovirus, Bac-to-Bac)
T1 sequence (P10144 21-247): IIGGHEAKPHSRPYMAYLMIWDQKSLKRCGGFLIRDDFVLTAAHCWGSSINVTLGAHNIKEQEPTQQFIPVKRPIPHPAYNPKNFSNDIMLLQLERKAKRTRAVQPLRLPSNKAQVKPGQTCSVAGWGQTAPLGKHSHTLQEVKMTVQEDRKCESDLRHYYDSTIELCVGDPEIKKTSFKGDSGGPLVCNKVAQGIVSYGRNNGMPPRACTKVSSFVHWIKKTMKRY
Put plainly: Fluorogenic assay for granzyme B (Ac-IEPD-AMC substrate). Particulars: recombinant granzyme B, substrate Ac-IEPD-AMC 10 μM, pH 7.5, 25° C.; read-out: Gzm B Ki. It is filed as biochemical. From the text:
Plasmids pMelBac and the TA Cloning Kit (pCR2.1) were purchased from Invitrogen (Carlsbad, Calif.). The Bac-to-Bac Baculovirus Expression System and all cell culture supplies were from Life Technologies (Gaithersburg, Md.). The human granzyme B protease has been identified and is known in the art. See, for example, Poe, et al., J. Biol. Chem. 266, 98-103. A vector was generated for secreted protein expression in the Bac-to-Bac system. The honeybee melittin secretion signal was amplified from pMelBac by PCR with primers 5′-GTGT AGATCTATGAAATTCTTAGTCAACG-3′ and 5′-TTCAGCAGAGTCGACTCCAAG-3′. The amplified product contained a BglII site upstream of the melittin secretion signal and spanned the multiple cloning site of the vector. The fragment was digested with BglII and EcoRI and subcloned into BamHI and EcoRI digested pFastBac. The resulting vector was designated pSecBac. Activatable tagged human granzyme B was cloned into pSecBac in two sequential steps. Firstly, mature granzyme B was amplified by PCR with primers 5′-GGATCC ATC GAA GGT CGT ATC ATC GGAGGACATGAGGCC-3′ and 5′-AAGCTTTTAGTAGCGCTTCATGGTCTTCTTTATCC-3′ and cloned into pCR2.1. In the sense primer, the bold type sequence coding for the Factor Xa recognition site, Ile-Glu-Gly-Arg, was inserted upstream of isoleucine 21 (referred to as ILE 16 in this paper using the numbering scheme for this family of serine proteases is traditionally based on the zymogen, chymotrypsinogen), the first amino acid of mature granzyme B. Secondly, hexa-histidine tagged, activatable granzyme B was amplified from the granzyme B/pCR2.1 clone by PCR using primers 5′-GGAAGATCTCATCATCATCATCATCATGGATCCATCGAAGGTCGTATC-3′ and 5′-CCT GAA TTC TTA GTA GCG TIT CAT GGT CTT CTT TAT CC-3′. The amplified product contained a Bali site upstream of the hex-histidine tag and contained the Factor Xa recognition sequence. This fragment was digested with Bali and ECOR and subcloned into BamHI and EcoRI digested pSecBac. The completed vector generated a recombinant baculovirus in Gibco BRL's Bac-to-Bac system, which would produce a secreted, 6-histidine tagged granzyme B. For protein expression, sf9 cells were grown to a density of 1.5×10^6 cells ml^−1 in Grace's medium (Cat. 11605-094) supplemented with 10% fetal calf serum and penicillin-streptomycin-glutamine (Cat. 10378-024). Prior to the addition of virus, cells were centrifuged at 1000×g for 15 minutes and resuspended to the same density in fresh growth medium containing recombinant viral stock and SP Sepharose beads (4 ml resin per liter of culture). After 72 hours of induction at 27° C., the resin was collected in a 50 micron Nylon mesh (PGC Scientifics), extensively washed with 50 mM Mes.NaOH, 0.3 M Na Cl, pH 6.6 and poured onto a column. The protein was eluted using a linear gradient (0.3 to 1.0 M) of NaCl. Fractions containing granzyme B activity were identified, combined and concentrated and then diluted in 20 mM Tris.HCl, pH 8.0. The sample was readjusted to a final pH 8.0, CaCl2 (3 mM final concentration) and factor Xa (Pharmacia, 10 units per mg of protein) were added, and incubated for 18 hours at room temperature to generate active granzyme B. Under these conditions, complete cleavage is achieved. The recombinant granzyme B was purified from the cleavage mixture using a 1 ml HiTrap SP column (Pharmacia). The yield can be as much as 4-5 mg of purified granzyme B per liter of culture. Mass spectral analysis identifies one major peak at 27,466 Da (other components of 27,320 Da and 26,630 Da were also consistently observed). Since the combined mass of the 227-amino acids defined by sequence analysis only accounts for 25,511.58 Da, we concluded that preparations of recombinant granzyme B purified with this method are more homogenous and less glycosylated than preparations of native granzyme B purified from NK cell granules. […]
In the case of `CC[C@H](C)[C@H](NC(C)=O)C(=O)N[C@H]1CCc2cccc3c2N(C1=O)[C@H](C(=O)NCc1nn[nH]n1)C3` [Example 1, (2S,5S)-5-[(N-acetyl-L-isoleucyl)amino]-4-oxo-N-(1H-tetraazol-5-ylmethyl)-1,2,4,5,6,7-hexahydroazepino[3,2,1-hi]indole-2-carboxamide], the Ki is 74 nM. For the compound `CC[C@H](C)[C@H](NC(C)=O)C(=O)N[C@H]1CCc2cccc3c2N(C1=O)[C@H](C(=O)NCc1c[nH]nn1)C3` [Example 2, (2S,5S)-5-[(N-acetyl-L-isoleucyl)amino]-4-oxo-N-(1H-1,2,3-triazol-4-ylmethyl)-1,2,4,5,6,7-hexahydroazepino[3,2,1-hi]indole-2-carboxamide], the Ki is 38 nM.

In the case of `CC[C@H](C)[C@H](NC(=O)Cc1ccccc1)C(=O)N[C@H]1CCc2cccc3c2N(C1=O)[C@H](C(=O)NCc1c[nH]nn1)C3` [Example 4, (2S,5S)-4-oxo-5-{[N-(phenylacetyl)-L-isoleucyl]amino}-N-(1H-1,2,3-triazol-4-ylmethyl)-1,2,4,5,6,7-hexahydroazepino[3,2,1-hi]indole-2-carboxamide], the inhibition constant Ki was found to be 13 nM. As for `CC[C@H](C)[C@H](NC(C)=O)C(=O)N[C@H]1CCc2cccc3c2N(C1=O)[C@H](C(=O)NCc1cn2cccnc2n1)C3` [Example 19], the inhibitory constant (Ki) came to 788 nM. The figure for `CC(C)[C@@H](C(=O)N[C@H]1CCc2cccc3c2N(C1=O)[C@H](C(=O)NCc1nn[nH]n1)C3)c1ccccn1` [Example 21] is 410 nM; for `CC[C@H](C)[C@H](NC(=O)Cc1cccc(F)c1F)C(=O)N[C@H]1CCc2cccc3c2N(C1=O)[C@H](C(=O)NCc1nn[nH]n1)C3` [Example 24] it is 36 nM. The result for `CC[C@H](C)[C@H](NC(=O)CN(C)C)C(=O)N[C@H]1CCc2cccc3c2N(C1=O)[C@H](C(=O)NCc1nn[nH]n1)C3` [Example 25] reads 203 nM; that for `CC[C@H](C)[C@H](NC(=O)Cc1csc2ccccc12)C(=O)N[C@H]1CCc2cccc3c2N(C1=O)[C@H](C(=O)NCc1nn[nH]n1)C3` [Example 26], 17 nM. The result for `CC[C@H](C)[C@H](NC(=O)CN(C)C)C(=O)N[C@H]1CCc2cccc3c2N(C1=O)[C@H](C(=O)NCc1c[nH]nn1)C3` [Example 27] reads 45 nM; that for `CC[C@H](C)[C@H](NC(=O)Cc1csc2ccccc12)C(=O)N[C@H]1CCc2cccc3c2N(C1=O)[C@H](C(=O)NCc1c[nH]nn1)C3` [Example 28], 7 nM. `CC(=O)N1CSC(C)(C)[C@H]1C(=O)N[C@H]1CCc2cccc3c2N(C1=O)[C@H](C(=O)NCc1c[nH]nn1)C3` [Example 29]: the Ki came out at 3880 nM.

On to `CC[C@H](C)[C@@H](C(=O)N[C@H]1CCc2cccc3c2N(C1=O)[C@H](C(=O)NCc1c[nH]nn1)C3)N1CCCC1=O` [Example 30], for which the Ki was determined as 112 nM. Consider `O=C(CC1CCCC1)N[C@H]1CCc2cccc3c2N(C1=O)[C@H](C(=O)NCc1c[nH]nn1)C3` [Example 31], for which the inhibitory constant (Ki) came to 1840 nM. The result for `CC(=O)N[C@H](C(=O)N[C@H]1CCc2cccc3c2N(C1=O)[C@H](C(=O)NCc1c[nH]nn1)C3)C1CC1` [Example 32] reads 1020 nM; that for `CC(=O)N[C@H](C(=O)N[C@H]1CCc2cccc3c2N(C1=O)[C@H](C(=O)NCc1c[nH]nn1)C3)C1CCCC1` [Example 33], 71 nM.
